What was measured:
[1] = compound: CC1CC(=O)N(C2=CN=C(N=C2N1C3CCCC3)NC4=C(C=C(C=C4)C(=O)NC5CCN(CC5)C)OC)C [NPK76-II-72-1] + CC(=O)Nc1cccc(-n2c(=O)n(C3CC3)c(=O)c3c(Nc4ccc(I)cc4F)n(C)c(=O)c(C)c32)c1 [Trametinib] (partner 0.02 µM); test: relative viability (nuclei count vs DMSO), 5 days (fraction); higher = more cells survive
How it was run: (§1)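 Relative viability divides the nuclei count in treated wells by that in vehicle wells. Lung cancer cell lines were seeded in 1536-well plates, dosed by pin tool the next day, and fixed and stained after 5 days in one step with final 0.05% Triton X-100, 1% formaldehyde and 1 ug/ml Hoechst. Dosing was a single drug or a fixed anchor-drug dose plus five library-drug doses (not always all listed) in √10 steps, and values are medians of duplicate plates imaged at 4×.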

BI-2536 + Dasatinib = compound: CC[C@@H]1C(=O)N(C)c2cnc(Nc3ccc(C(=O)NC4CCN(C)CC4)cc3OC)nc2N1C1CCCC1 [BI-2536] + Cc1nc(Nc2ncc(C(=O)Nc3c(C)cccc3Cl)s2)cc(N2CCN(CCO)CC2)n1 [Dasatinib] (partner 0.075 µM); test: as above
How it was run: as §1

Cell Line | relative viability ([1]; first compound 0.01 µM) | relative viability ([1]; first compound 0.03162 µM) | relative viability ([1]; first compound 0.1 µM) | relative viability ([1]; first compound 0.3162 µM) | relative viability ([1]; first compound 1 µM) | relative viability (BI-2536 + Dasatinib; first compound 0.01 µM) | relative viability (BI-2536 + Dasatinib; first compound 0.03162 µM) | relative viability (BI-2536 + Dasatinib; first compound 0.1 µM) | relative viability (BI-2536 + Dasatinib; first compound 0.3162 µM) | relative viability (BI-2536 + Dasatinib; first compound 1 µM)
HCC-44 | 1.06 | 1.27 | 0.95 | 0.992 | 0.988 |  |  |  |  | 
HCC-827 | 0.557 | 0.491 | 0.556 | 0.633 | 0.565 | 0.293 | 0.315 | 0.334 | 0.301 | 0.177
NCI-H1623 |  |  |  |  |  | 0.485 | 0.519 | 0.571 | 0.595 | 0.281
NCI-H2347 | 0.353 | 0.283 | 0.296 | 0.302 | 0.26 |  | 0.293 | 0.285 | 0.278 | 0.167
PC-14 | 0.741 | 0.848 | 0.698 | 0.678 | 0.798 | 0.269 |  | 0.0367 | 0.0318 | 0.0158
NCI-H1651 | 0.83 | 0.82 | 0.839 | 0.794 | 0.816 | 0.138 | 0.376 | 0.075 | 0.1 | 0.0509
HARA | 0.83 | 0.864 | 0.619 |  | 0.856 | 0.265 | 0.287 | 0.328 | 0.058 | 0.0777
NCI-H1650 | 0.523 | 0.591 | 0.59 | 0.491 | 0.585 | 0.341 | 0.321 | 0.18 | 0.159 | 0.12
NCI-H1395 | 1.09 | 1.01 | 1 | 1.07 | 1.06 | 0.413 | 0.398 | 0.315 | 0.297 | 0.328
LU99A | 0.591 | 0.542 | 0.596 | 0.536 | 0.602 | 0.47 | 0.593 | 0.178 | 0.188 | 0.159
NCI-H1355 | 0.468 | 0.452 | 0.421 | 0.395 | 0.44 | 0.694 | 0.78 | 0.359 | 0.23 | 0.199
HCC-78 | 0.711 | 0.704 | 0.575 | 0.828 | 0.742 | 0.454 | 0.374 | 0.416 | 0.25 | 0.17
NCI-H1563 |  |  |  |  |  | 0.47 | 0.498 | 0.449 | 0.361 | 0.331
HCC-15 | 0.35 | 0.329 | 0.342 | 0.357 | 0.393 | 0.557 | 0.417 | 0.192 | 0.112 | 0.102
EKVX | 0.359 | 0.32 | 0.367 |  | 0.384 | 0.742 | 0.653 | 0.586 | 0.399 | 0.174
NCI-H2087 | 0.219 | 0.203 | 0.201 | 0.179 | 0.244 | 0.913 | 0.926 | 0.509 | 0.105 | 0.0876
LK-2 | 0.767 | 0.65 | 0.584 | 0.609 | 0.69 | 0.268 | 0.313 | 0.215 | 0.147 | 0.137
NCI-H1437 | 0.492 | 0.533 | 0.557 | 0.53 | 0.616 | 0.318 | 0.365 | 0.247 | 0.173 | 0.108
COR-L23 | 0.588 | 0.679 | 0.671 | 0.497 | 0.65 | 0.459 | 0.491 | 0.117 | 0.107 | 0.0593
ABC-1 |  |  |  |  |  | 0.519 | 0.634 | 0.211 | 0.31 | 0.231
SW 900 | 0.871 | 1.07 | 0.66 | 0.587 | 1.11 | 0.629 | 0.596 | 0.391 | 0.181 | 0.139
NCI-H838 | 0.485 | 0.575 | 0.513 | 0.523 | 0.578 | 0.281 | 0.291 | 0.235 | 0.134 | 0.164
NCI-H1648 | 0.503 | 0.504 | 0.369 | 0.384 | 0.494 |  |  |  |  | 
A-427 | 0.732 | 0.743 | 0.812 | 0.691 | 0.812 | 0.579 | 0.752 | 0.44 | 0.12 | 0.118
NCI-H1792 |  | 0.469 | 0.478 | 0.378 | 0.506 | 0.762 | 0.916 | 0.885 | 0.498 | 0.34
LCLC-97TM1 | 0.203 | 0.208 | 0.181 | 0.215 | 0.209 | 0.943 | 0.837 | 0.725 | 0.155 | 0.12
LCLC-103H |  | 0.673 | 0.556 | 0.709 | 0.693 | 0.405 | 0.467 | 0.413 | 0.147 | 0.089

Cell Line | relative viability ([1]; first compound 0.01 µM) | relative viability ([1]; first compound 0.03162 µM) | relative viability ([1]; first compound 0.1 µM) | relative viability ([1]; first compound 0.3162 µM) | relative viability ([1]; first compound 1 µM) | relative viability (BI-2536 + Dasatinib; first compound 0.01 µM) | relative viability (BI-2536 + Dasatinib; first compound 0.03162 µM) | relative viability (BI-2536 + Dasatinib; first compound 0.1 µM) | relative viability (BI-2536 + Dasatinib; first compound 0.3162 µM) | relative viability (BI-2536 + Dasatinib; first compound 1 µM)
PC-3 [JPC-3] | 0.701 |  | 0.705 | 0.737 | 0.703 | 1.02 | 0.925 | 0.879 | 0.266 | 0.188
BEN | 1.15 | 0.945 | 1.13 | 0.854 | 1.08 | 0.34 | 0.367 | 0.248 | 0.184 | 0.199
NCI-H1666 | 0.851 | 0.859 | 0.847 | 0.732 | 1.05 | 0.765 | 0.653 | 0.716 | 0.313 | 0.267
LC-2-ad | 0.826 | 0.934 | 0.983 | 0.92 | 0.945 | 0.563 | 0.333 | 0.135 | 0.197 | 0.147
SK-LU-1 | 0.454 | 0.508 | 0.526 | 0.437 | 0.473 | 0.176 | 0.143 | 0.108 | 0.113 | 0.099
ChaGo-K-1 | 0.876 | 0.98 | 0.868 | 0.897 | 0.875 | 0.594 | 0.667 | 0.446 | 0.194 | 0.197
COR-L 105 | 0.43 | 0.456 | 0.491 | 0.424 | 0.435 | 0.359 | 0.312 | 0.212 | 0.197 | 0.148
NCI-H1975 | 0.348 | 0.329 | 0.303 | 0.323 | 0.401 | 0.374 | 0.334 | 0.194 | 0.0936 | 0.0979
NCI-H1993 | 0.551 | 0.549 | 0.624 | 0.57 | 0.482 | 0.688 | 0.577 | 0.51 | 0.514 | 0.485
RERF-LC-KJ | 0.874 | 0.854 | 0.838 | 0.809 | 0.946 | 0.746 | 0.574 | 0.234 | 0.189 | 0.217
NCI-H23 | 0.361 | 0.424 | 0.271 | 0.342 | 0.38 | 0.803 | 1.02 | 0.285 | 0.126 | 0.107
HCC-366 | 0.336 | 0.403 | 0.372 | 0.308 | 0.424 | 0.717 | 0.653 | 0.149 | 0.0225 | 0.0238
EMC-BAC-2 | 0.836 | 0.955 | 0.845 | 0.81 | 0.952 | 0.3 | 0.304 | 0.209 | 0.15 | 0.14
NCI-H2405 | 0.662 | 0.618 | 0.601 | 0.59 | 0.702 | 0.19 | 0.214 | 0.178 | 0.102 | 0.177
NCI-H358 | 0.14 | 0.145 | 0.204 |  | 0.151 | 0.157 | 0.171 | 0.0774 | 0.0602 | 0.0816
NCI-H1944 | 0.372 | 0.413 | 0.423 | 0.351 | 0.408 | 0.218 | 0.232 | 0.177 | 0.126 | 0.132
NCI-H2342 | 0.871 | 0.655 | 0.909 | 0.809 | 0.461 | 0.326 | 0.313 | 0.267 | 0.213 | 0.227
EPLC-272H | 0.257 | 0.246 | 0.252 | 0.296 | 0.284 | 0.327 | 0.357 | 0.0724 | 0.0766 | 0.0856
NCI-H1915 | 0.286 | 0.307 | 0.294 | 0.313 | 0.295 | 0.292 | 0.354 | 0.139 | 0.156 | 0.0656
NCI-H596 | 0.764 | 0.787 | 0.776 | 0.82 | 0.803 | 0.574 | 0.673 | 0.449 | 0.25 | 0.273
NCI-H322M | 0.531 | 0.492 | 0.472 | 0.483 | 0.557 | 0.286 | 0.248 | 0.259 | 0.361 | 0.288
NCI-H2228 | 0.348 | 0.63 | 0.538 | 0.285 | 0.571 | 0.448 | 0.372 | 0.116 | 0.0877 | 0.0886
NCI-H522 | 0.811 | 0.619 | 0.747 |  | 0.79 | 0.687 | 0.989 | 0.607 | 0.341 | 0.334
NCI-H647 | 0.443 | 0.436 | 0.418 | 0.527 | 0.54 | 0.156 | 0.184 | 0.0428 | 0.0374 | 0.039
SK-MES-1 | 0.543 | 0.583 | 0.489 | 0.593 | 0.555 | 0.415 | 0.336 | 0.134 | 0.115 | 0.136
NCI-H2170 | 0.884 | 0.934 | 0.93 | 0.654 | 0.892 | 0.626 | 0.597 | 0.356 | 0.16 | 0.179
NCI-H2085 | 0.505 | 0.522 | 0.532 | 0.528 | 0.541 | 0.26 | 0.232 | 0.232 | 0.157 | 0.19

From the supplement of paper PMC10307832
